# Measured values from the supplement of paper PMC10307832.
# Tests used:
# Assay in all cases: relative viability (nuclei count vs DMSO), 5 days (fraction); higher = more cells survive
# [1] = compound: C[C@@H](N)c1ccc(C(=O)Nc2ccnc3[nH]ccc23)cc1 + O=C(CCCCCCC(=O)Nc1ccccc1)NO [Vorinostat] (partner 1 µM)
# In short: (§1)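 Relative viability is defined as nuclei in treated wells over nuclei in vehicle wells. Duplicate plates were run and medians reported. Lung cancer cell lines in 1536-well plates were dosed by pin tool one day after seeding, with one drug or with a fixed anchor-drug dose plus five library-drug doses (not always all listed) in √10 steps, and nuclei were counted after 5 days.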
# [2] = compound: C[C@@H](N)c1ccc(C(=O)Nc2ccnc3[nH]ccc23)cc1 + C[C@@H](Oc1cc(-c2cnn(C3CCNCC3)c2)cnc1N)c1c(Cl)ccc(F)c1Cl [Crizotinib] (partner 1 µM)
# In short: as §1
# Tanzisertib + Vorinostat = compound: O[C@H]1CC[C@H](Nc2ncc3nc(Nc4c(F)cc(F)cc4F)n([C@H]4CCOC4)c3n2)CC1 [Tanzisertib] + O=C(CCCCCCC(=O)Nc1ccccc1)NO [Vorinostat] (partner 1 µM)
# In short: as §1
# [3] = compound: C[C@@H](N)c1ccc(C(=O)Nc2ccnc3[nH]ccc23)cc1 + Nc1ncn([C@H]2C[C@H](O)[C@@H](CO)O2)c(=O)n1 [Decitabine] (partner 2 µM)
# In short: as §1
Cell Line,relative viability ([1]; first compound 0.04 µM),relative viability ([1]; first compound 0.1265 µM),relative viability ([1]; first compound 0.4 µM),relative viability ([1]; first compound 1.265 µM),relative viability ([1]; first compound 4 µM),relative viability ([2]; first compound 0.04 µM),relative viability ([2]; first compound 0.1265 µM),relative viability ([2]; first compound 0.4 µM),relative viability ([2]; first compound 4 µM),relative viability (Tanzisertib + Vorinostat; first compound 0.08 µM),relative viability (Tanzisertib + Vorinostat; first compound 0.253 µM),relative viability (Tanzisertib + Vorinostat; first compound 0.8 µM),relative viability (Tanzisertib + Vorinostat; first compound 2.53 µM),relative viability (Tanzisertib + Vorinostat; first compound 8 µM),relative viability ([3]; first compound 0.04 µM),relative viability ([3]; first compound 0.1265 µM),relative viability ([3]; first compound 0.4 µM),relative viability ([3]; first compound 1.265 µM),relative viability ([3]; first compound 4 µM),relative viability ([2]; first compound 1.265 µM)
LK-2,0.198,0.275,0.222,0.17,0.302,0.227,0.251,0.224,0.218,0.365,0.356,0.282,0.25,0.278,0.351,0.287,0.359,0.237,0.352,
NCI-H1650,0.7,0.663,0.675,0.663,0.648,1.04,1.12,1.04,0.763,0.551,0.601,0.501,0.625,0.491,0.379,0.542,0.51,0.431,0.447,0.911
NCI-H322M,1.21,1.04,1.11,1.05,1.39,0.881,0.944,1.09,1.08,0.863,0.961,0.875,0.912,0.75,0.744,0.833,0.906,0.809,0.876,
NCI-H661,0.859,0.802,0.845,0.826,0.886,0.906,0.929,1.18,0.89,0.799,0.724,0.798,0.859,0.797,0.51,0.59,0.573,0.493,0.504,1.02
NCI-H520,0.862,0.757,0.813,0.714,0.693,0.824,0.852,0.801,0.804,0.866,0.749,0.789,0.724,0.73,0.579,0.552,0.61,0.617,0.569,1.05
NCI-H441,0.946,0.827,1.03,0.739,0.835,0.807,0.764,0.749,0.565,0.895,0.854,0.731,0.72,0.804,0.276,0.279,0.225,0.258,0.238,0.948
